Source: US20180289843A1, “COATING FOR METAL NANOPARTICLES” (AGENCY FOR SCIENCE, TECHNOLOGY AND RESEARCH, priority 2015, published 2018)
Where a SMILES comes first, the peptide text is derived from it. [ ]: non-standard residue; d: D form. The star is where a group is joined. pS = N[C@@H](COP(=O)(O)O)C(=O)O; Thr(ol) = C[C@@H](O)[C@H](N)CO; X1 = O=C(COP(=O)(O)O)*

What was measured:
[1] = Normalized aggregation parameter (NAP) by UV-visible absorbance; format: physicochemical; settings: single ligand shell
Method: UV-visible spectra were recorded at room temperature using a Molecular Probes (Oregon, USA) Spectramax 384-well spectrometer, using a 1 cm path length quartz cuvette, and a fixed slit width of 2 nrn. The spectrometer was calibrated daily using the machine's ‘Auto-Calibrate’ air calibration.
To allow the comparison of results from different ligand exchange experiments, the aggregation parameter (AP) was defined as follows: […]
A460 nm and A300 nm are absorbance values of solutions of nanoparticles at 460 nm and 300 nm, respectively. The empiric wavelength of 460 nm has been chosen to reflect the aggregated state of the nanoparticles. Aref460 nm and Aref300 nm are absorbance values of water at 460 nm and 300 nm. To allow comparison of results obtained with different ligand shells, this primary aggregation parameter was then normalized by dividing the aggregation parameter values of each experiment by the initial aggregation parameter value of the same experiment before the stability test. This provides a Normalized Aggregation Parameter (NAP). […] An increase of the NAP indicates the instability and eventually aggregation of the nanoparticles.

[2] = Electrolyte-induced aggregation stability test (NaCl, PBS) followed by UV-visible spectrometry; format: physicochemical; settings: prepared in PBS and Tween 20, two days
Method: The stability of the nanoparticles was followed by UV-visible spectrometry. A decrease of absorbance indicates the aggregation of the nanoparticles. […] The four single peptide ligand shells were evaluated for their potential to stabilize the iron oxide nanoparticles against electrolyte-induced aggregation. The nanoparticles were mixing with a range of concentration of NaCl (0.1 mM to 1 M) at room temperature. The stability of the nanoparticles was followed by UV-visible spectrophotometry and the normalized aggregation parameters were determined. […] The aggregation of all nanoparticles were observed also in PBS buffer (with 100 mM NaCl) after few hours. […] This represents a promising result since the utilization of the peptide coated iron nanoparticles in vitro and in vivo are performed at 37° C. All the mixed peptide ligand shells providing sufficient yield of nanoparticles were evaluated for electrolyte-induced aggregation stability by mixing the nanoparticles with a range of concentration of NaCl (0.1 mM to 1 M) at room temperature. […] This represents again a promising results since the utilisation of the peptide coated iron nanoparticles in vitro and in vivo are performed at 37° C.

[3] = prepared using PBS and Tween 20

Row | Compound | NAP (normalized aggregation parameter) ([1]; prepared using water only) | further results
1 | O=P(O)(O)SCCCCCCCCCCCOCCOCCOCCO [Ligand L1, (HO)2-PO-S-C11-EG3-OH] | (1.25 ± 0.08) | 
2 | O=P(O)(O)SCCCCCCCCCCCOCCOCCOCCOCCOCCOCCO [Ligand L2, (HO)2-PO-S-C11-EG6-OH] | (1.31 ± 0.04) | 
3 | CC(C)[C@H](NC(=O)[C@H](COP(=O)(O)O)NC(=O)COP(=O)(O)O)C(=O)N[C@H](C(=O)N[C@H](C(=O)N[C@H](CO)[C@@H](C)O)C(C)C)C(C)C [Peptide S14, PO3H2-O-CH2-CO-Ser(PO3H2)-Val-Val-Val-Thr-ol] (X1-[pS]VVV[Thr(ol)]) |  | Stability in PBS buffer at 37° C. ([2]; 37° C.): same high stability; Stability in 1 M NaCl ([2]; room temperature): high stability; Stability in PBS buffer at room temperature ([2]; room temperature): high stability
4 | H-[pS]VVV[Thr(ol)] [Peptide S13] | (1.23 ± 0.13) | NAP (normalized aggregation parameter) [1, 3]: 2.23 ± 0.34
5 | PO3H2-O-CH2-CO-Gly-NH-PEG4-OH [Peptide S5] | (1.21 ± 0.21) | 
6 | PO3H2-O-CH2-CO-Ser(PO3H2)-NH-PEG4-OH [Peptide S7] | (1 ± 0.02) | NAP (normalized aggregation parameter) [1, 3]: 1.33 ± 0.08
7 | PO3H2-O-CH2-CO-Ser(PO3H2)-NH-PEG4-ol [Peptide S8] | (1 ± 0.01) | 
